Measured values reported in ChEMBL document CHEMBL1201862, “PubChem BioAssay data set” (2004).
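Method: 48-hour compound exposure of cells in 96-well plates, five concentrations, linear interpolation of endpoints. GI50 is the concentration that inhibits growth by half.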 The source made the active and inactive calls. Cut-off read from the data, not from the text of the source: active = GI50 up to about 1.1 µM and inactive = higher.

Columns and labels:
Test in all cases: DTP human tumour cell line panel, 48 h
786-0 = test system: 786-0
NCI-H23 = test system: NCI-H23
MDA-N = test system: MDA-N
UACC-62 = test system: UACC-62
HOP-92 = test system: HOP-92
OVCAR-5 = test system: OVCAR-5
U-251 = test system: U-251
K562 = test system: K562
LOX IMVI = test system: LOX IMVI
ACHN = test system: ACHN
HL-60 = test system: HL-60
SF-295 = test system: SF-295
M14 = test system: M14
NCI/ADR-RES = test system: NCI/ADR-RES
CCRF-CEM = test system: CCRF-CEM
SK-MEL-2 = test system: SK-MEL-2
BT-549 = test system: BT-549
EKVX = test system: EKVX
HT-29 = test system: HT-29

SMILES | GI50 (786-0) | GI50 (NCI-H23) | GI50 (MDA-N) | GI50 (UACC-62) | GI50 (HOP-92) | GI50 (OVCAR-5) | GI50 (U-251) | GI50 (K562) | GI50 (LOX IMVI) | GI50 (ACHN) | GI50 (HL-60) | GI50 (SF-295) | GI50 (M14) | GI50 (NCI/ADR-RES) | GI50 (CCRF-CEM) | GI50 (SK-MEL-2) | GI50 (BT-549) | GI50 (EKVX) | GI50 (HT-29)
CO/N=C(/C)c1cccc(Nc2nc3ccc(Cl)cc3c3[nH]c4ccccc4c23)c1 | 6.79 µM (inactive) | 11.5 µM (inactive) | 11.8 µM (inactive) | 6.59 µM (inactive) | 3.65 µM (inactive) | 7.31 µM (inactive) | 13.6 µM (inactive) | 3.13 µM (inactive) | 11.2 µM (inactive) | 3.74 µM (inactive) | 13.2 µM (inactive) | 4.08 µM (inactive) | 6.92 µM (inactive) | 14.3 µM (inactive) | 23 µM (inactive) | 13.2 µM (inactive) |  |  | 
C=C1C(=O)O[C@H]2[C@H]3O[C@@H](C[C@@H]12)[C@@]1(C)CC[C@H](O1)[C@H](C)CCC[C@H]3C | 1.31 µM (inactive) | 1.75 µM (inactive) |  | 1.81 µM (inactive) | 1.43 µM (inactive) | 1.67 µM (inactive) | 1.5 µM (inactive) | 1.44 µM (inactive) | 1.55 µM (inactive) | 1.51 µM (inactive) | 0.237 µM (active) | 4.82 µM (inactive) |  | 1.53 µM (inactive) | 0.399 µM (active) | 2.09 µM (inactive) | 0.811 µM (active) | 1.44 µM (inactive) | 1.29 µM (inactive)
C[C@H]1C[C@H]2[C@@H]3CCC4=CC(=O)C=C[C@]4(C)C3=CC[C@]2(C)[C@@]1(O)C(=O)CO | > 100 µM (inactive) | 95.1 µM (inactive) | > 100 µM (inactive) | > 100 µM (inactive) | > 100 µM (inactive) | > 100 µM (inactive) | > 100 µM (inactive) | > 100 µM (inactive) | > 100 µM (inactive) | > 100 µM (inactive) | 42 µM (inactive) | > 100 µM (inactive) | > 100 µM (inactive) | > 100 µM (inactive) | 66.8 µM (inactive) | > 100 µM (inactive) |  | 50.6 µM (inactive) | > 100 µM (inactive)
COc1ccc(-c2cc(-c3ccc(Nc4ccnc5cc(Cl)ccc45)cc3)nc(N)c2C#N)cc1 | > 100 µM (inactive) | > 100 µM (inactive) |  | > 100 µM (inactive) | > 100 µM (inactive) | > 100 µM (inactive) | > 100 µM (inactive) | > 100 µM (inactive) | > 100 µM (inactive) | > 100 µM (inactive) | > 100 µM (inactive) | > 100 µM (inactive) | > 100 µM (inactive) | > 100 µM (inactive) |  | > 100 µM (inactive) | > 100 µM (inactive) | > 100 µM (inactive) | 
Nc1ncc(Cc2ccc3c(c2)OCO3)c(N)n1 | > 100 µM (inactive) | > 100 µM (inactive) | > 100 µM (inactive) | > 100 µM (inactive) | 53.5 µM (inactive) | > 100 µM (inactive) | > 100 µM (inactive) | > 100 µM (inactive) | > 100 µM (inactive) | > 100 µM (inactive) | 73.5 µM (inactive) | > 100 µM (inactive) | > 100 µM (inactive) | > 100 µM (inactive) | > 100 µM (inactive) |  |  | > 100 µM (inactive) | > 100 µM (inactive)
O=c1[nH]c(=O)n(C2OC(CO)C(O)C2O)c2c1CCCC2 (stereo not given) | > 100 µM (inactive) | > 100 µM (inactive) | > 100 µM (inactive) | > 100 µM (inactive) | > 100 µM (inactive) | > 100 µM (inactive) | > 100 µM (inactive) | > 100 µM (inactive) | > 100 µM (inactive) | > 100 µM (inactive) | > 100 µM (inactive) | > 100 µM (inactive) | > 100 µM (inactive) | > 100 µM (inactive) | > 100 µM (inactive) | > 100 µM (inactive) |  | > 100 µM (inactive) | > 100 µM (inactive)
CC(C)(C)C(=O)/C=C(\OB(F)F)C(C)(C)C | > 100 µM (inactive) | > 100 µM (inactive) | > 100 µM (inactive) |  | > 100 µM (inactive) | > 100 µM (inactive) | > 100 µM (inactive) | > 100 µM (inactive) | > 100 µM (inactive) | > 100 µM (inactive) | > 100 µM (inactive) | > 100 µM (inactive) | > 100 µM (inactive) | > 100 µM (inactive) | > 100 µM (inactive) | > 100 µM (inactive) |  | > 100 µM (inactive) | > 100 µM (inactive)
C[C@]1(O)CC[C@H]2[C@@H]3CCc4cc(O)ccc4[C@H]3CC[C@@]21C | 6.38 µM (inactive) | 3.03 µM (inactive) | 0.186 µM (active) |  | 6.95 µM (inactive) | 8.02 µM (inactive) | 4.03 µM (inactive) |  | 14.5 µM (inactive) | 16.6 µM (inactive) | 0.362 µM (active) | 1.48 µM (inactive) | 1.18 µM (inactive) | 1.99 µM (inactive) | 2.37 µM (inactive) | 0.773 µM (active) |  | 1.32 µM (inactive) | 6.7 µM (inactive)
O=C1CC(c2ccc(Cl)cc2)Oc2ccccc21 (stereo not given) | 16.3 µM (inactive) | 15.2 µM (inactive) |  | 20.6 µM (inactive) | 24.7 µM (inactive) |  | 31.8 µM (inactive) | 4.86 µM (inactive) | 29.8 µM (inactive) | 36.1 µM (inactive) | 10.7 µM (inactive) | 24.4 µM (inactive) | 17.1 µM (inactive) | 16.1 µM (inactive) | 11 µM (inactive) | 18.8 µM (inactive) |  | 18.6 µM (inactive) | 8.71 µM (inactive)
C=C(COCO)C(C)=O | 12 µM (inactive) | 17.5 µM (inactive) | 16.9 µM (inactive) | 17.2 µM (inactive) | 27 µM (inactive) | 20.5 µM (inactive) | 24.5 µM (inactive) | 3.45 µM (inactive) | 15.9 µM (inactive) | 15.7 µM (inactive) | 3.48 µM (inactive) | > 75 µM (inactive) | 13 µM (inactive) | 22.4 µM (inactive) | 2.86 µM (inactive) | 22.8 µM (inactive) |  | 20.4 µM (inactive) | 17.7 µM (inactive)
O/N=C1/CC2(N3CCOCC3)C3CC/C(=N\O)C2CC1(Cc1ccccc1)C3 (stereo not given) | > 100 µM (inactive) | > 100 µM (inactive) | > 100 µM (inactive) | > 100 µM (inactive) |  | > 100 µM (inactive) | > 100 µM (inactive) | 74 µM (inactive) | > 100 µM (inactive) | > 100 µM (inactive) | 67 µM (inactive) | > 100 µM (inactive) | > 100 µM (inactive) | > 100 µM (inactive) | > 100 µM (inactive) | > 100 µM (inactive) |  | > 100 µM (inactive) | 95.9 µM (inactive)
O=C(/C=C/c1ccc(O)c(O)c1)NCCc1ccc(-c2ccccc2)cc1 | 49.7 µM (inactive) | 68.4 µM (inactive) |  |  |  | 87.7 µM (inactive) |  | 27.2 µM (inactive) |  |  | 28.3 µM (inactive) | 40.8 µM (inactive) | 33.4 µM (inactive) | 64.7 µM (inactive) | 26.5 µM (inactive) | > 100 µM (inactive) | 74.5 µM (inactive) | > 100 µM (inactive) | 63.5 µM (inactive)
COc1cc(/C=c2\sc3n(c2=O)C(c2ccc(Cl)cc2)C2=C(CCCC2C)N=3)cc(OC)c1OC (stereo not given) | > 100 µM (inactive) |  | > 100 µM (inactive) | > 100 µM (inactive) | > 100 µM (inactive) | > 100 µM (inactive) | > 100 µM (inactive) | > 100 µM (inactive) | > 100 µM (inactive) | > 100 µM (inactive) | > 100 µM (inactive) |  | > 100 µM (inactive) |  | > 100 µM (inactive) | > 100 µM (inactive) |  | > 100 µM (inactive) | > 100 µM (inactive)
O=C(CCCN1CCC2(CC1)CC(c1ccccc1)OC2=O)c1ccc(F)cc1 (stereo not given) | 24.1 µM (inactive) | 53.7 µM (inactive) | 49.4 µM (inactive) | 25.2 µM (inactive) | 26.9 µM (inactive) | 45.9 µM (inactive) | 74.5 µM (inactive) | 29.5 µM (inactive) | 19.6 µM (inactive) | 54.6 µM (inactive) | 25.6 µM (inactive) | 25 µM (inactive) | 15.8 µM (inactive) | 92 µM (inactive) | 41.6 µM (inactive) | 35.1 µM (inactive) |  | > 100 µM (inactive) | 9.06 µM (inactive)
COc1nn(Cc2ccccc2F)c2ccc([N+](=O)[O-])cc12 | > 100 µM (inactive) | > 100 µM (inactive) | 3.4 µM (inactive) |  | 90.6 µM (inactive) | > 100 µM (inactive) | > 100 µM (inactive) | 2.91 µM (inactive) | > 100 µM (inactive) | > 100 µM (inactive) | 4.28 µM (inactive) |  | > 100 µM (inactive) | > 100 µM (inactive) | > 100 µM (inactive) | 98.9 µM (inactive) |  | > 100 µM (inactive) | > 100 µM (inactive)
Cc1cc(C)n(C(=CC(=O)C(Cl)Cl)n2nc(C)cc2C)n1 | 2.07 µM (inactive) | 2.62 µM (inactive) |  | 1.66 µM (inactive) | 9.31 µM (inactive) | 3.48 µM (inactive) | 5.12 µM (inactive) | 2.17 µM (inactive) | 1.57 µM (inactive) | 6.05 µM (inactive) | 3.32 µM (inactive) | 10.4 µM (inactive) | 2.83 µM (inactive) | 2.65 µM (inactive) | 1.85 µM (inactive) | 3.69 µM (inactive) | 2.45 µM (inactive) |  | 
CCOC(=O)C1(CO)CSCCSC1 |  | > 100 µM (inactive) | > 100 µM (inactive) |  | > 100 µM (inactive) |  | > 100 µM (inactive) | > 100 µM (inactive) | > 100 µM (inactive) | > 100 µM (inactive) |  | > 100 µM (inactive) |  | > 100 µM (inactive) | > 100 µM (inactive) |  |  |  | > 100 µM (inactive)
